One assay concerns NK3 receptors. The conditions noted are these: literature; cited from earlier work.
Assay [1] has as its system NK1 receptor. The conditions noted are these: literature; cited from earlier work.
The target in assay [2] is T1, NK1 receptor (Guinea Pig Trachea) (Cavia porcellus, UniProt P30547).
T1 construct: Trachea; from tissue; host or cells: guinea pig trachea
The assay can be described thus: NK1 antagonist activity, guinea pig trachea. The conditions noted are these: read-out: NK1 Antagonist Activity pkB/pA2, Guinea Pig Trachea (converted).

Assay [3] addresses T2, NK1 receptor (Guinea Pig Ileum) (Cavia porcellus, UniProt P30547).
T2 construct: Ileum; from tissue; host or cells: guinea pig ileum
Briefly: NK1 antagonist activity, guinea pig ileum. The note with it: read-out: NK1 Antagonist Activity pkB/pA2, Guinea Pig Ileum (converted).

The target of assay [4] is T3, NK1 receptor (Cavia porcellus, UniProt P30547).
T3 construct: guinea pig cerebral cortex membranes; from tissue; host or cells: guinea pig cerebral cortex membranes
T3 sequence (P30547 whole entry): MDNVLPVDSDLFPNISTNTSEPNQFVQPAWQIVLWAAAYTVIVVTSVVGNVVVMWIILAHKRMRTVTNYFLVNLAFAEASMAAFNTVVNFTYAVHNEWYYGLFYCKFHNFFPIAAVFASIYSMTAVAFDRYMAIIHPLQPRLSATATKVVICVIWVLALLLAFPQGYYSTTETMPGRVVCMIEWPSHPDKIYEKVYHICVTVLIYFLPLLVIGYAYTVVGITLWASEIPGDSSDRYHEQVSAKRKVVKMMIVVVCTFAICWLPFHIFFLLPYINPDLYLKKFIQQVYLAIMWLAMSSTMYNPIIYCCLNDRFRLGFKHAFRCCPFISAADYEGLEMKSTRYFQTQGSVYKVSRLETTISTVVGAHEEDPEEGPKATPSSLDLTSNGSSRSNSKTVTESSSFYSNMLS
The assay can be described thus: In vitro NK1 receptor binding ([125I] Bolton Hunter Substance-P, guinea pig cerebral cortex membranes). The note with it: Binding IC50, In Vitro NK1 Receptor Binding, [125I-BH]Substance-P 0.1 nM. As to the method:
The compounds of the invention were also evaluated in three tachykinin binding assays.

In assay [5] the target is T3, NK1 receptor. Briefly: Antagonism of substance-P methylester in a number of in vitro NK1 preparations. Also noted: species or system guinea pig. The source says:
Therefore, it could be of use in therapeutic disorders where attenuation of the NK1 receptor response is an appropriate form of intervention.

The test system of another assay is NK2 receptors. The note with it: literature; cited from earlier work.
The target in assay [6] is T3, NK1 receptor. Briefly: Guinea pig plasma extravasation (antagonism of SPOMe-induced plasma protein extravasation in the bladder). Type of assay: in vivo. The conditions noted are these: guinea pig, iv, read-out: ID50, Guinea Pig Plasma Extravasation.

“Also recorded” adds a separate entry of the source.

T1 sequence (P30547 whole entry): as above
T2 sequence (P30547 whole entry): as above

Take NKB: mammalian tachykinin neuropeptide: in the assay with NK3 receptors, the “NK3 receptor binding, in words” value is reported as “bind preferentially”. Take `CN(Cc1ccccc1)C(=O)[C@H](Cc1ccc2ccccc2c1)NC(=O)[C@@H]1C[C@@H](O)CN1C(=O)c1cn(C)c2ccccc12` [FK 888]: in the assay on NK1 receptor [1], the “NK1 receptor affinity or activity, in words” value is listed as “high affinity for the NK1 receptor”. In the case of `C[C@H](NC(=O)[C@@](C)(Cc1c[nH]c2ccccc12)NC(=O)OCc1ccccc1)c1ccccc1` [Example 15], the values for the Kb (in assay [2]; in assay [3]; on NK1 receptor [5] (read-out: pKB against substance-P methylester on these tissues (converted))) were 39.8 nM, 15.8 nM and ~10 nM, respectively. In addition, the IC50 (in general, the concentration that inhibits the measured activity by half) on NK1 receptor [4] stood at 36 nM. On NK1 receptor [5] (listed as Ex. 15), the “NK1 receptor antagonism, in words” value is given as “antagonist of the NK1 receptor; also recorded: tachykinin NK1 receptor antagonist”. Turning to `CC(=O)NC1(c2ccccc2)CCN(CC[C@H](CN(C)C(=O)c2ccccc2)c2ccc(Cl)c(Cl)c2)CC1` [SR 48969], the “NK2 receptor affinity or selectivity, in words” value with NK2 receptors was “high affinity and selectivity for NK2 receptors”. Consider Substance-P, for which, in the assay on NK1 receptor [1], the “NK1 receptor affinity or activity, in words” value is “highest affinity for NK1 receptors”. For the compound `COc1ccccc1CN[C@H]1C2CCN(CC2)[C@H]1C(c1ccccc1)c1ccccc1` [CP-96,345], the “NK1 receptor affinity or activity, in words” value with NK1 receptor [1] is listed as “antagonists at the NK1 receptor”.

On to `COc1ccccc1CC(=N)N1C[C@@H]2C(=O)CCC(c3ccccc3)(c3ccccc3)[C@@H]2C1` [RP 67580], for which, in the assay with NK1 receptor [1], the “NK1 receptor affinity or activity, in words” value is listed as “antagonists at the NK1 receptor”.

In the case of NKA: mammalian tachykinin neuropeptide, the “NK2 receptor affinity or selectivity, in words” value in the assay with NK2 receptors is “bind preferentially to NK2”.

`C[C@H](NC(=O)[C@@](C)(Cc1c[nH]c2ccccc12)NC(=O)OCc1ccccc1F)c1ccccc1` [Example 47, (2-Fluorophenyl) methyl [R-(R*,S*)]-[1-(1H-insol-3-ylmethyl)-1-methyl-2-oxo-[1-phenylethyl)amino]ethyl]carbamate]: the Kb is 50.1 nM in assay [2] and 3.98 nM in assay [3]. Moreover, the ED50 at NK1 receptor [6] is 0.13 mg/kg. The compound further yielded an IC50 at NK1 receptor [4] of 10 nM.

Source of the values: patent publication US5594022A, “Tachykinin antagonists” (Warner-Lambert Company, priority 1994, dated 1997).
